Values after ≈ are worked out from the molar mass of the structure shown.
Tests used:
Candida albicans [1] = assay: Antifungal activity against Candida albicans ATCC 76615 assessed as Polyoxin B MIC incubated for 24 hrs in presence of fluconazole by half broth dilution based checkerboard method; format: functional
Aspergillus flavus [2] = assay: Antifungal activity against Aspergillus flavus ATCC 16870 assessed as Polyoxin B MIC incubated for 24 hrs in presence of fluconazole by half broth dilution based checkerboard method; format: functional
Aspergillus fumigatus [3] = assay: Synergistic antifungal activity against Aspergillus fumigatus GIMCC 3.19 assessed as fractional inhibitory concentration index in presence of fluconazole incubated for 24 hrs by half broth dilution based checkerboard method; format: functional
[4] = Inhibition of chitin synthase extracted from Candida tropicalis ATCC 750 using UDP-GlcNAc as substrate assessed as inhibition rate by TMB based microplate analyzer relative to control
Aspergillus fumigatus [5] = assay: Antifungal activity against Aspergillus fumigatus GIMCC 3.19 assessed as inhibition of growth incubated for 24 hrs by two-fold serial dilution method; format: functional
Aspergillus flavus [6] = assay: Antifungal activity against Aspergillus flavus ATCC 16870 incubated for 24 hrs by half broth dilution based checkerboard method; format: functional
Aspergillus flavus [7] = assay: Synergistic antifungal activity against Aspergillus flavus ATCC 16870 assessed as fractional inhibitory concentration index in presence of Polyoxin B incubated for 24 hrs by half broth dilution based checkerboard method; format: functional
Aspergillus flavus [8] = assay: Antifungal activity against Aspergillus flavus ATCC 16870 assessed as fluconazole MIC incubated for 24 hrs in presence of fluconazole by half broth dilution based checkerboard method; format: functional
Aspergillus fumigatus [9] = assay: Antifungal activity against drug-resistant Aspergillus fumigatus GIMCC 3.19 assessed as inhibition of cell wall synthesis in presence of sorbitol incubated for 24 hrs; format: functional
Cryptococcus neoformans [10] = assay: Synergistic antifungal activity against Cryptococcus neoformans ATCC 32719 assessed as fractional inhibitory concentration index in presence of fluconazole incubated for 24 hrs by half broth dilution based checkerboard method; format: functional
Cryptococcus neoformans [11] = assay: Synergistic antifungal activity against Cryptococcus neoformans ATCC 32719 assessed as fractional inhibitory concentration index in presence of Polyoxin B incubated for 24 hrs by half broth dilution based checkerboard method; format: functional
Aspergillus flavus [12] = assay: Antifungal activity against drug-resistant Aspergillus flavus ATCC 16870 assessed as inhibition of cell wall synthesis in presence of sorbitol incubated for 24 hrs; format: functional
Aspergillus fumigatus [13] = assay: Antifungal activity against fluconazole-resistant Aspergillus fumigatus GIMCC 3.19 assessed as inhibition of fungal growth incubated for 24 to 72 hrs; format: functional; details: time 24-72 hrs
Aspergillus flavus [14] = assay: Synergistic antifungal activity against Aspergillus flavus ATCC 16870 assessed as fractional inhibitory concentration index in presence of fluconazole incubated for 24 hrs by half broth dilution based checkerboard method; format: functional
Candida albicans [15] = assay: Antifungal activity against Candida albicans ATCC 76615 assessed as inhibition of growth incubated for 24 hrs by two-fold serial dilution method; format: functional
Aspergillus fumigatus [16] = assay: Antifungal activity against Aspergillus fumigatus GIMCC 3.19 assessed as Polyoxin B MIC incubated for 24 hrs in presence of fluconazole by half broth dilution based checkerboard method; format: functional
Cryptococcus neoformans [17] = assay: Antifungal activity against fluconazole-resistant Cryptococcus neoformans ATCC 32719 assessed as inhibition of fungal growth incubated for 24 to 72 hrs; format: functional; details: time 24-72 hrs
Cryptococcus neoformans [18] = assay: Antifungal activity against Cryptococcus neoformans ATCC 32719 assessed as fluconazole MIC incubated for 24 hrs in presence of fluconazole by half broth dilution based checkerboard method; format: functional
Aspergillus flavus [19] = assay: Antifungal activity against Aspergillus flavus ATCC 16870 assessed as inhibition of growth incubated for 24 hrs by two-fold serial dilution method; format: functional
Candida albicans [20] = assay: Antifungal activity against drug-resistant Candida albicans ATCC 76615 assessed as inhibition of cell wall synthesis in presence of sorbitol incubated for 24 hrs; format: functional
Candida albicans [21] = assay: Antifungal activity against fluconazole-resistant Candida albicans ATCC 76615 assessed as inhibition of fungal growth incubated for 24 to 72 hrs; format: functional; details: time 24-72 hrs
Aspergillus flavus [22] = assay: Antifungal activity against fluconazole-resistant Aspergillus flavus ATCC 16870 assessed as inhibition of fungal growth incubated for 24 to 72 hrs; format: functional; details: time 24-72 hrs
Candida tropicalis = assay: Inhibition of chitin synthase extracted from Candida tropicalis ATCC 750 using UDP-GlcNAc as substrate assessed as inhibition rate at 300 ug/ml by TMB based microplate analyzer relative to control; details: dose 300.0 µg/ml
Candida albicans [23] = assay: Antifungal activity against Candida albicans ATCC 76615 incubated for 24 hrs by half broth dilution based checkerboard method; format: functional
Candida albicans [24] = assay: Antifungal activity against Candida albicans ATCC 76615 assessed as fluconazole MIC incubated for 24 hrs in presence of fluconazole by half broth dilution based checkerboard method; format: functional
Aspergillus fumigatus [25] = assay: Antifungal activity against Aspergillus fumigatus GIMCC 3.19 incubated for 24 hrs by half broth dilution based checkerboard method; format: functional
Cryptococcus neoformans [26] = assay: Antifungal activity against Cryptococcus neoformans ATCC 32719 assessed as inhibition of growth incubated for 24 hrs by two-fold serial dilution method; format: functional
Candida albicans [27] = assay: Antifungal activity against micafungin-resistant Candida albicans ATCC 76615 assessed as inhibition of fungal growth incubated for 24 to 72 hrs; format: functional; details: time 24-72 hrs
Candida albicans [28] = assay: Synergistic antifungal activity against Candida albicans ATCC 76615 assessed as fractional inhibitory concentration index in presence of fluconazole incubated for 24 hrs by half broth dilution based checkerboard method; format: functional
Aspergillus fumigatus [29] = assay: Antifungal activity against Aspergillus fumigatus GIMCC 3.19 assessed as fluconazole MIC incubated for 24 hrs in presence of fluconazole by half broth dilution based checkerboard method; format: functional
Cryptococcus neoformans [30] = assay: Antifungal activity against Cryptococcus neoformans ATCC 32719 incubated for 24 hrs by half broth dilution based checkerboard method; format: functional
Cryptococcus neoformans [31] = assay: Antifungal activity against Cryptococcus neoformans ATCC 32719 assessed as Polyoxin B MIC incubated for 24 hrs in presence of fluconazole by half broth dilution based checkerboard method; format: functional
Candida albicans [32] = assay: Synergistic antifungal activity against Candida albicans ATCC 76615 assessed as fractional inhibitory concentration index in presence of Polyoxin B incubated for 24 hrs by half broth dilution based checkerboard method; format: functional
Aspergillus fumigatus [33] = assay: Synergistic antifungal activity against Aspergillus fumigatus GIMCC 3.19 assessed as fractional inhibitory concentration index in presence of Polyoxin B incubated for 24 hrs by half broth dilution based checkerboard method; format: functional
Cryptococcus neoformans [34] = assay: Antifungal activity against drug-resistant Cryptococcus neoformans ATCC 32719 assessed as inhibition of cell wall synthesis in presence of sorbitol incubated for 24 hrs; format: functional

Row | SMILES | MIC (Candida albicans [1]) | MIC (Aspergillus flavus [2]) | fractional inhibitory concentration index (FICI) (Aspergillus fumigatus [3]) | IC50 [4] | MIC (Aspergillus fumigatus [5]) | MIC (Aspergillus flavus [6]) | fractional inhibitory concentration index (FICI) (Aspergillus flavus [7]) | MIC (Aspergillus flavus [8]) | MIC (Aspergillus fumigatus [9]) | fractional inhibitory concentration index (FICI) (Cryptococcus neoformans [10]) | fractional inhibitory concentration index (FICI) (Cryptococcus neoformans [11]) | MIC (Aspergillus flavus [12]) | MIC (Aspergillus fumigatus [13]) | fractional inhibitory concentration index (FICI) (Aspergillus flavus [14]) | MIC (Candida albicans [15]) | MIC (Aspergillus fumigatus [16]) | MIC (Cryptococcus neoformans [17]) | MIC (Cryptococcus neoformans [18]) | MIC (Aspergillus flavus [19]) | MIC (Candida albicans [20]) | further results
1 | O=C(CN1CCC(C(=O)Nc2cccc(Br)c2)CC1)Nc1ccc2c(c1)NC(=O)C1(CCNC1=O)C2 (racemic) | 16 mg/L | 32 mg/L | 0.75 | 101 µM | 32 mg/L (≈ 57.7 µM) | 32 mg/L | 1.25 | 1.25 mg/L | 256 mg/L | 1.5 | 1 | 256 mg/L | 64 mg/L (≈ 115 µM) | 0.625 | 16 mg/L (≈ 28.9 µM) | 32 mg/L | 32 mg/L (≈ 57.7 µM) | 0.75 mg/L | 32 mg/L (≈ 57.7 µM) | 128 mg/L | MIC (Candida albicans [21]): 32 mg/L (≈ 57.7 µM); MIC (Aspergillus flavus [22]): 32 mg/L (≈ 57.7 µM); inhibition (Candida tropicalis): 80.6%; MIC (Candida albicans [23]): 16 mg/L; MIC (Candida albicans [24]): 1 mg/L; MIC (Aspergillus fumigatus [25]): 32 mg/L; MIC (Cryptococcus neoformans [26]): 8 mg/L (≈ 14.4 µM); MIC (Candida albicans [27]): 64 mg/L (≈ 115 µM); fractional inhibitory concentration index (FICI) (Candida albicans [28]): 1.25; MIC (Aspergillus fumigatus [29]): 1 mg/L; MIC (Cryptococcus neoformans [30]): 8 mg/L; MIC (Cryptococcus neoformans [31]): 8 mg/L; fractional inhibitory concentration index (FICI) (Candida albicans [32]): 1.5; fractional inhibitory concentration index (FICI) (Aspergillus fumigatus [33]): 0.75; MIC (Cryptococcus neoformans [34]): 256 mg/L
2 | O=C(/C=C/C(=O)Nc1cccc2ccccc12)Nc1ccc2c(c1)NC(=O)C1(CCNC1=O)C2 (racemic) | 8 mg/L | 2 mg/L | 1 | 131 µM | 8 mg/L (≈ 17.6 µM) | 2 mg/L | 0.75 | 2 mg/L | 128 mg/L | 0.5 | 0.5 | 64 mg/L | 64 mg/L (≈ 141 µM) | 0.75 | 16 mg/L (≈ 35.2 µM) | 2 mg/L | 32 mg/L (≈ 70.4 µM) | 2 mg/L | 8 mg/L (≈ 17.6 µM) | 256 mg/L | MIC (Candida albicans [21]): 32 mg/L (≈ 70.4 µM); MIC (Aspergillus flavus [22]): 32 mg/L (≈ 70.4 µM); inhibition (Candida tropicalis): 79.5%; MIC (Candida albicans [23]): 4 mg/L; MIC (Candida albicans [24]): 8 mg/L; MIC (Aspergillus fumigatus [25]): 2 mg/L; MIC (Cryptococcus neoformans [26]): 8 mg/L (≈ 17.6 µM); MIC (Candida albicans [27]): 32 mg/L (≈ 70.4 µM); fractional inhibitory concentration index (FICI) (Candida albicans [28]): 1.125; MIC (Aspergillus fumigatus [29]): 2 mg/L; MIC (Cryptococcus neoformans [30]): 2 mg/L; MIC (Cryptococcus neoformans [31]): 2 mg/L; fractional inhibitory concentration index (FICI) (Candida albicans [32]): 1.25; fractional inhibitory concentration index (FICI) (Aspergillus fumigatus [33]): 1; MIC (Cryptococcus neoformans [34]): 128 mg/L
3 | Cc1ccc(NC(=O)/C=C/C(=O)Nc2ccc3c(c2)NC(=O)C2(CCNC2=O)C3)cc1 (racemic) | 8 mg/L | 4 mg/L | 1.5 | 201 µM | 16 mg/L (≈ 38.2 µM) | 4 mg/L | 2 | 4 mg/L | 128 mg/L | 1.5 | 1.5 | 64 mg/L | 32 mg/L (≈ 76.5 µM) | 2 | 16 mg/L (≈ 38.2 µM) | 16 mg/L | 64 mg/L (≈ 153 µM) | 8 mg/L | 8 mg/L (≈ 19.1 µM) | 128 mg/L | MIC (Candida albicans [21]): 64 mg/L (≈ 153 µM); MIC (Aspergillus flavus [22]): 32 mg/L (≈ 76.5 µM); inhibition (Candida tropicalis): 71.4%; MIC (Candida albicans [23]): 8 mg/L; MIC (Candida albicans [24]): 4 mg/L; MIC (Aspergillus fumigatus [25]): 8 mg/L; MIC (Cryptococcus neoformans [26]): 32 mg/L (≈ 76.5 µM); MIC (Candida albicans [27]): 64 mg/L (≈ 153 µM); fractional inhibitory concentration index (FICI) (Candida albicans [28]): 1; MIC (Aspergillus fumigatus [29]): 4 mg/L; MIC (Cryptococcus neoformans [30]): 16 mg/L; MIC (Cryptococcus neoformans [31]): 16 mg/L; fractional inhibitory concentration index (FICI) (Candida albicans [32]): 1; fractional inhibitory concentration index (FICI) (Aspergillus fumigatus [33]): 1.5; MIC (Cryptococcus neoformans [34]): 256 mg/L
